# Test results as given in patent US20260250272A1, “N-SUBSTITUTED QUINOLINONE COMPOUND, PREPARATION METHOD THEREFOR AND USE THEREOF” (VIGONVITA LIFE SCIENCES CO., LTD., priority 2022, published 2026).
# How the values were obtained:
# [1] = molecular target: T1, human recombinant 5-HT2A receptor (Homo sapiens, UniProt P28223); experiment: Antagonistic activity against the 5-HT2A receptor (IP-One-Gq, CHO cells); type: cell-based; details: serotonin stimulation
# T1 construct: expressed in transfected cells; host or cells: CHO (5-HT2A-CHO)
# Experimental: The antagonistic effect of the compounds on the 5-HT2A receptor in the CHO cells expressing the human recombinant 5-HT2A receptor was assayed by using the IP-One-Gq kit (Cisbio). […] Risperidone was used as a positive control.
# hERG potassium channel = molecular target: T2, hERG potassium channel (Homo sapiens, UniProt Q12809); experiment: hERG potassium channel block, automatic patch clamp (QPatch, CHO cells); type: cell-based; details: CHO cells stably expressing hERG, highest concentration 20 μM; read-out: hERG inhibition (IC50)
# T2 construct: expressed in transfected cells
# Experimental: The hERG potassium channel block experiment was performed using the full-automatic patch-clamp technique (QPatch^HTX, Sophion, Stockholm, Sweden). The cell line is CHO cells stably expressing the hERG potassium channel. The compounds were tested at the highest test concentration of 20 μM in 3-fold dilution (n=3).
# [2] = Oil solubility test in benzyl benzoate (HPLC); type: physicochemical; details: organic solvent or mixture, thermodynamic from solid, 25° C., shaken 2 h
# Experimental: The solubility test was performed by quantitative analysis using an external standard method of high-performance liquid chromatography.
# Reference sample solution: 10 mg of reference sample was weighed, placed in a 20 mL volumetric flask, diluted to the scale with 80% acetonitrile, and shaken uniformly.
# Test sample solution: an appropriate amount of sample was dissolved in benzyl benzoate to obtain a saturated solution. The mixture was placed in a shaker and shaken at 25° C. and 800 rpm for 2 h. The sample solution was filtered, and 100 μL of filtrate was added to a 10 mL volumetric flask, diluted to the scale with 80% acetonitrile, and shaken uniformly.
# [3] = molecular target: human recombinant D2L receptor (Homo sapiens, UniProt P14416); experiment: Antagonistic activity against the D2L receptor (LANCE Ultra cAMP, CHO cells)
# Experimental: The antagonistic effect of the compounds on the D2L receptor in the CHO cells expressing the human recombinant D2L receptor was assayed by using the LANCE® Ultra cAMP kit (PerkinElmer, USA). […] Amisulpride was used as a positive control.
# [4] = Human liver microsome assay; type: in vitro ADME; details: for half-life at 1 μM / CLint scaled at 1 μM: pH 7.41, human liver microsomes 0.5 mg/mL, compound 1 μM, NADPH 2 mM; for half-life at 1 μM: read-out: Half-life (t1/2, min); for CLint scaled at 1 μM: read-out: Intrinsic clearance (Clint, mL/min/kg)
# Experimental: Preparation of magnesium-potassium buffer solution: a 100 mM potassium buffer and 5 mM MgCl2 were preheated together to obtain a magnesium-potassium buffer at a pH of 7.41. Preparation of 0.5 mM working solution: a 10 mM compound stock solution was added to 95 μL of acetonitrile. Preparation of 1.5 μM working solution containing microsomes (0.75 mg/mL): 1.5 μL of the 0.5 mM working solution and 18.75 μL of 20 mg/mL human liver microsome solution were added to 479.75 μL of the magnesium-potassium buffer. Preparation of NADPH stock solution (6 mM, 5 mg/mL): NADPH was dissolved in the magnesium-potassium buffer. 30 μL of 1.5 μM working solution containing 0.75 mg/mL human liver microsomes were added to each of the wells of a 96-well plate, and the plate was pre-incubated at 37° C. for 5 min. For a sample at 0 min, 150 μL of acetonitrile solution containing an internal standard was added, and then 15 μL of NADPH stock solution (6 mM) was added to initiate the reaction. For samples at other time points, 15 μL of NADPH stock solution (6 mM) was directly added to initiate the reaction. Final content of components: compound (1 μM), human liver microsomes (0.5 mg/mL), and NADPH (2 mM). 150 μL of cold stop buffer containing an internal standard was added at time points of 5 min, 15 min, 30 min, and 45 min to stop the sample reaction, the plate was centrifuged at 600 rpm for 10 min and then at 6000 rpm for 15 min, and the supernatant was taken for LC-MS/MS analysis.
# A standard curve of the ln residual rate of the drug in the incubation system with respect to the incubation time was plotted by using Excel software, linear regression was performed to obtain a slope k, and the half-life T1/2 (min) and the intrinsic clearance CLint (mL/min/kg) value were calculated according to the following formula: […]
# Chain of human recombinant D2L receptor (P14416 whole entry): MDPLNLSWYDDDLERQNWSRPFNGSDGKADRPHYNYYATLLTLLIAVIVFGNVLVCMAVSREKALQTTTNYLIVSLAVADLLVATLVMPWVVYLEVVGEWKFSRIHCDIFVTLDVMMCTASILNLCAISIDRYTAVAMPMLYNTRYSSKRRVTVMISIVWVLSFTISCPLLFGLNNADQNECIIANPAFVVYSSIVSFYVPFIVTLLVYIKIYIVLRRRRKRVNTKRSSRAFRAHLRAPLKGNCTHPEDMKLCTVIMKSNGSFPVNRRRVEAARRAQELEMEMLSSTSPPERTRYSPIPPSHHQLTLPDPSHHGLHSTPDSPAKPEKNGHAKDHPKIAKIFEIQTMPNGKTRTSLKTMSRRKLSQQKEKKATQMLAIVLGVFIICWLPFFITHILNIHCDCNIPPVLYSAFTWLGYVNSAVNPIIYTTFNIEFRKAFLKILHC
# T1 sequence (P28223 whole entry): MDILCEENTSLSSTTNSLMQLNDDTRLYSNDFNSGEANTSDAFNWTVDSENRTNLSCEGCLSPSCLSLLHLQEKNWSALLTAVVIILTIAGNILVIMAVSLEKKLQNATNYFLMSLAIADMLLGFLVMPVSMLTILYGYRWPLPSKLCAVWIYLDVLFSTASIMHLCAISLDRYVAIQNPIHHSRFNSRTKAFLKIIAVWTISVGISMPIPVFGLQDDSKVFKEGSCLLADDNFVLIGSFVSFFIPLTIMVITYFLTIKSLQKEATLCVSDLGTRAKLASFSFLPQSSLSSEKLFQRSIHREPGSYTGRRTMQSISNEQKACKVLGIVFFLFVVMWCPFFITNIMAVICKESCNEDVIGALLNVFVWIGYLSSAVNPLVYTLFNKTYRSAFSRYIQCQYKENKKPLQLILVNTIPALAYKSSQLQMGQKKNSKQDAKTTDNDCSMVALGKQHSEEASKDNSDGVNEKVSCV
# T2 sequence (Q12809 whole entry): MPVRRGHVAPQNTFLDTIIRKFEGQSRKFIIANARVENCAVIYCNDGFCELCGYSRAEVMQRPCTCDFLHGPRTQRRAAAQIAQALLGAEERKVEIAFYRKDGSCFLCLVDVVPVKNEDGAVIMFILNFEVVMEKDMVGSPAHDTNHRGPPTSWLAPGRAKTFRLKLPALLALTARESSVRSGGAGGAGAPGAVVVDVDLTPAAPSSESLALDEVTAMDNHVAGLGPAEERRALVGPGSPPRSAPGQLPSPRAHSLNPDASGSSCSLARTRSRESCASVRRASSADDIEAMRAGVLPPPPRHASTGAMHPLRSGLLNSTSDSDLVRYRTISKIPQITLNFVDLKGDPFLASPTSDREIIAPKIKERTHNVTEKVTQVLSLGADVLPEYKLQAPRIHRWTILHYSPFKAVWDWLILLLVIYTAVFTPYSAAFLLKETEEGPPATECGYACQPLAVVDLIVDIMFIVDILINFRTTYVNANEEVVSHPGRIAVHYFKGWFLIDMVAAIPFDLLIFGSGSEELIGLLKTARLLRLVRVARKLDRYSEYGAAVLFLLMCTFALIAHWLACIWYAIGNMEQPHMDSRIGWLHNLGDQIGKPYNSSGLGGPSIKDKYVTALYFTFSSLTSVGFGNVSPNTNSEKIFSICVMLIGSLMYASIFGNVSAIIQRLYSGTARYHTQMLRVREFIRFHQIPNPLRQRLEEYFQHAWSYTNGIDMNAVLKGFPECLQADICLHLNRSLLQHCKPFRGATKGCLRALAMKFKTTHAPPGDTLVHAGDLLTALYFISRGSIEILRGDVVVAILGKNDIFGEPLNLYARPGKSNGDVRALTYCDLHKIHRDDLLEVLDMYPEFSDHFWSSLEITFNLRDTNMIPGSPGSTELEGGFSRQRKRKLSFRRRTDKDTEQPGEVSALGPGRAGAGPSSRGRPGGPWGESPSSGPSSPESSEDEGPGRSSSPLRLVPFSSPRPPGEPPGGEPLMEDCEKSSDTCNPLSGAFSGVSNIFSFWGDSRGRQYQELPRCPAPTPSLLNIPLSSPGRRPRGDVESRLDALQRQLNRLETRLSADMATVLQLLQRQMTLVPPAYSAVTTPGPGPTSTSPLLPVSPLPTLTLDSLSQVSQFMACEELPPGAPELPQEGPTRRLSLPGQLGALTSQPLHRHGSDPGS
SMILES,solubility at 2 h [2],also measured
"O=C1CCc2ccc(CCN3CCN(c4cc(F)cc5sccc45)CC3)cc2N1 [Compound 1-a, 7-(2-(4-(6-fluorophenothiophen-4-yl)piperazin-1-yl)ethyl)-3,4-dihydroquinolin-2(1H)-one, reference compound]",22.4 mg/mL,IC50 [1]: 33 nM; IC50 (hERG potassium channel): 920 nM; IC50 [3]: 4.4 nM
CC(C)OC(=O)OCN1C(=O)CCc2ccc(CCN3CCN(c4cc(F)cc5sccc45)CC3)cc21 [Compound 2],75 mg/mL,half-life at 1 μM [4]: 0.69 min; CLint scaled at 1 μM [4]: 2530 mL/min/kg
CCCCCCCCCCCC(=O)OCN1C(=O)CCc2ccc(CCN3CCN(c4cc(F)cc5sccc45)CC3)cc21 [Compound 3],> 200 mg/mL,half-life at 1 μM [4]: 367 min; CLint scaled at 1 μM [4]: 4.73 mL/min/kg
CC(=O)OCN1C(=O)CCc2ccc(CCN3CCN(c4cc(F)cc5sccc45)CC3)cc21 [Compound 5],23.4 mg/mL,half-life at 1 μM [4]: 0.87 min; CLint scaled at 1 μM [4]: 2000 mL/min/kg
CCCCC(=O)OCN1C(=O)CCc2ccc(CCN3CCN(c4cc(F)cc5sccc45)CC3)cc21 [Compound 6],166 mg/mL,half-life at 1 μM [4]: 1 min; CLint scaled at 1 μM [4]: 1720 mL/min/kg
"CCCCCCCCCC(=O)OCN1C(=O)CCc2ccc(CCN3CCN(c4cc(F)cc5sccc45)CC3)cc21 [Compound 7, (7-(2-(4-(6-fluorobenzo[b]thiophen-4-yl)piperazin-1-yl)ethyl)-2-oxo-3,4-dihydroquinolin-1(2H)-yl)methyl decanoate]",> 200 mg/mL,Metabolic stability in human liver microsomes (in words) ([4]; human liver microsomes): good metabolic stability; half-life at 1 μM [4]: 30 min; CLint scaled at 1 μM [4]: 56.8 mL/min/kg
"CCCCCCCCCCCCCCCCCC(=O)OCN1C(=O)CCc2ccc(CCN3CCN(c4cc(F)cc5sccc45)CC3)cc21 [Compound 68, (7-(2-(4-(6-Fluorobenzo[b]thiophen-4-yl)piperazin-1-yl)ethyl)-2-oxo-3,4-dihydroquinolin-1(2H)-yl) methyl stearate]",> 200 mg/mL,
"CCCCCCCCCCCCCCCCCCCC(=O)OCN1C(=O)CCc2ccc(CCN3CCN(c4cc(F)cc5sccc45)CC3)cc21 [Compound 69, (7-(2-(4-(6-Fluorobenzo[b]thiophen-4-yl)piperazin-1-yl)ethyl)-2-oxo-3,4-dihydroquinolin-1(2H)-yl) methyl icosanoate]",> 200 mg/mL,
"CCCCCCCCCCNC(=O)OCN1C(=O)CCc2ccc(CCN3CCN(c4cc(F)cc5sccc45)CC3)cc21 [Compound 71, (7-(2-(4-(6-Fluorobenzo[b]thiophen-4-yl)piperazin-1-yl)ethyl)-2-oxo-3,4-dihydroquinolin-1(2H)-yl) methyl decylcarbamate]",> 200 mg/mL,
"C=CCCCCCCCCC(=O)OCN1C(=O)CCc2ccc(CCN3CCN(c4cc(F)cc5sccc45)CC3)cc21 [Compound 72, (7-(2-(4-(6-Fluorobenzo[b]thiophen-4-yl)piperazin-1-yl)ethyl)-2-oxo-3,4-dihydroquinolin-1(2H)-yl) methyl undec-10-enoate]",> 200 mg/mL,
"CCCCCCCC/C=C\CCCCCCCC(=O)OCN1C(=O)CCc2ccc(CCN3CCN(c4cc(F)cc5sccc45)CC3)cc21 [Compound 73, (7-(2-(4-(6-Fluorobenzo[b]thiophen-4-yl)piperazin-1-yl)ethyl)-2-oxo-3,4-dihydroquinolin-1(2H)-yl) methyl oleate]",> 200 mg/mL,
"CCCCCCCCCCCCCCCCCCCCCC(=O)OCN1C(=O)CCc2ccc(CCN3CCN(c4cc(F)cc5sccc45)CC3)cc21 [Compound 74, (7-(2-(4-(6-fluorobenzo[b]thiophen-4-yl)piperazin-1-yl)ethyl)-2-oxo-3,4-dihydroquinolin-1(2H)-yl)methyl docosanoate]",> 200 mg/mL,
"CCCCCCCCCCCCCCCCCCCCCCCC(=O)OCN1C(=O)CCc2ccc(CCN3CCN(c4cc(F)cc5sccc45)CC3)cc21 [Compound 75, (7-(2-(4-(6-Fluorobenzo[b]thiophen-4-yl)piperazin-1-yl)ethyl)-2-oxo-3,4-dihydroquinolin-1(2H)-yl) methyl tetracosanoate]",> 200 mg/mL,
"CCCCCCCCCCCCCCCCCCCCCCCCCCC(=O)OCN1C(=O)CCc2ccc(CCN3CCN(c4cc(F)cc5sccc45)CC3)cc21 [Compound 76, (7-(2-(4-(6-fluorobenzo[b]thiophen-4-yl)piperazin-1-yl)ethyl)-2-oxo-3,4-dihydroquinolin-1(2H)-yl)methyl heptacosanoate]",> 200 mg/mL,
"CCCCCCCC/C=C\CCCCCCCC(=O)OCn1c(=O)ccc2ccc(CCN3CCN(c4cc(F)cc5sccc45)CC3)cc21 [Compound 77, (7-(2-(4-(6-Fluorobenzo[b]thiophen-4-yl)piperazin-1-yl)ethyl)-2-oxoquinolin-1(2H)-yl)methyl oleate]",> 200 mg/mL,
"CCCCC(C)(C)C(=O)OCN1C(=O)CCc2ccc(CCN3CCN(c4cc(F)cc5sccc45)CC3)cc21 [Compound 108, (7-(2-(4-(6-Fluorobenzo[b]thiophen-4-yl)piperazin-1-yl)ethyl)-2-oxo-3,4-dihydroquinolin-1(2H)-yl) methyl 2,2-dimethylhexanoate]",> 200 mg/mL,
"CCCCCC(C)C(=O)OCN1C(=O)CCc2ccc(CCN3CCN(c4cc(F)cc5sccc45)CC3)cc21 (stereo not drawn) [Compound 110, (7-(2-(4-(6-Fluorobenzo[b]thiophen-4-yl)piperazin-1-yl)ethyl)-2-oxo-3,4-dihydroquinolin-1(2H)-yl) methyl 2-methylheptanoate]",> 200 mg/mL,
"CCCCCC(CCCCC)C(=O)OCN1C(=O)CCc2ccc(CCN3CCN(c4cc(F)cc5sccc45)CC3)cc21 [Compound 112, (7-(2-(4-(6-Fluorobenzo[b]thiophen-4-yl)piperazin-1-yl)ethyl)-2-oxo-3,4-dihydroquinolin-1(2H)-yl) methyl 2-pentylheptanoate]",> 200 mg/mL,
"CCCCCC(CCCCC)C(=O)OCn1c(=O)ccc2ccc(CCN3CCN(c4cc(F)cc5sccc45)CC3)cc21 [Compound 113, (7-(2-(4-(6-Fluorobenzo[b]thiophen-4-yl)piperazin-1-yl)ethyl)-2-oxoquinolin-1(2H)-yl)methyl 2-pentylheptanoate]",> 200 mg/mL,
"C=CCCCCCCCCC(=O)N1C(=O)CCc2ccc(CCN3CCN(c4cc(F)cc5sccc45)CC3)cc21 [Compound 132, 7-(2-(4-(6-Fluorobenzo[b]thiophen-4-yl)piperazin-1-yl)ethyl)-1-(undec-10-enoyl)-3,4-dihydroquinolin-2(1H)-one]",> 200 mg/mL,
"CCCCCCCCCC(=O)OCOC(=O)N1C(=O)CCc2ccc(CCN3CCN(c4cc(F)cc5sccc45)CC3)cc21 [Compound 133, (Decanoyloxy)methyl 7-(2-(4-(6-fluorobenzo[b]thiophen-4-yl)piperazin-1-yl)ethyl)-2-oxo-3,4-dihydroquinoline-1(2H)-carboxylate]",> 200 mg/mL,
"CCCCCCCCCCCC(=O)OCn1c(=O)ccc2ccc(CCN3CCN(c4cc(F)cc5sccc45)CC3)cc21 [Compound 134, (7-(2-(4-(6-Fluorobenzo[b]thiophen-4-yl)piperazin-1-yl)ethyl)-2-oxoquinolin-1(2H)-yl)methyl dodecanoate]",> 200 mg/mL,
